Experiment [1] concerns the target T1, Non-receptor tyrosine-protein kinase TYK2 (Homo sapiens, UniProt P29597). The experiment can be described thus: Inhibition of TYK2 (unknown origin).
Experiment [2] is filed under the species Homo sapiens. Put plainly: Selectivity index, ratio of IC50 for JAK3 (unknown origin) to IC50 for TYK2 (unknown origin).
Experiment [3] deals with T2, Tyrosine-protein kinase JAK3 (Homo sapiens, UniProt P52333).
T2 sequence (P52333 whole entry): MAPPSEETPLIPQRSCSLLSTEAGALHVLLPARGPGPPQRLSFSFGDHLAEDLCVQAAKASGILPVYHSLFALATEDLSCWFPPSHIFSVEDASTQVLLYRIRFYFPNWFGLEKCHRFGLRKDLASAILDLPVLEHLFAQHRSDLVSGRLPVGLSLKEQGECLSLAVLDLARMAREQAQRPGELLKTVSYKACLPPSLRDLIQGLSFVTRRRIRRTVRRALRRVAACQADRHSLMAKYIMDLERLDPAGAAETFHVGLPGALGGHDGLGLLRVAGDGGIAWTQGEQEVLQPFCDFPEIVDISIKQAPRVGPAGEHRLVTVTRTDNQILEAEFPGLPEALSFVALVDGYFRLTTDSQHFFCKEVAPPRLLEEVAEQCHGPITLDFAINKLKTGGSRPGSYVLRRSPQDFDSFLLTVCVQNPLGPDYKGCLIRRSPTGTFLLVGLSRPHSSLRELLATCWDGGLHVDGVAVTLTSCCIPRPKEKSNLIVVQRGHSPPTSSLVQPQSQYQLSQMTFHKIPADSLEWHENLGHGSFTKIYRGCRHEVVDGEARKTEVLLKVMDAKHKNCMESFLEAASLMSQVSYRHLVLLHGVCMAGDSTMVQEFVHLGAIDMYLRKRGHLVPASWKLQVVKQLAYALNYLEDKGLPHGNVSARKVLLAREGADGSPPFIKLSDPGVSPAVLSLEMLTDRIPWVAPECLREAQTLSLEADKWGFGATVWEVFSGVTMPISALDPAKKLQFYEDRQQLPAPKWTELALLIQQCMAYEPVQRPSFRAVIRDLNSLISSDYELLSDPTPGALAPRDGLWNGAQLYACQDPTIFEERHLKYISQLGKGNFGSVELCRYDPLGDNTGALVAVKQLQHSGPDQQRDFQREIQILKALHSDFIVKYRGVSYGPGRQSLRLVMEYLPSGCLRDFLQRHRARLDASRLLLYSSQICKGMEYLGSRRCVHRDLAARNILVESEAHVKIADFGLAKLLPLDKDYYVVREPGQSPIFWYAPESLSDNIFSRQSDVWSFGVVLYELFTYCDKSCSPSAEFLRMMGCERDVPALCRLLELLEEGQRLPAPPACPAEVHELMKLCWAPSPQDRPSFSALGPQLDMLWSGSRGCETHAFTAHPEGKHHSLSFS
Put plainly: Inhibition of JAK3 (unknown origin).

For experiment [4], the species on record is Homo sapiens. Put plainly: Selectivity index, ratio of IC50 for JAK2 (unknown origin) to IC50 for TYK2 (unknown origin).
Experiment [5] addresses Tyrosine-protein kinase JAK1 (Homo sapiens, UniProt P23458). Put plainly: Inhibition of JAK1 (unknown origin).
Experiment [6] has as its target T1, Non-receptor tyrosine-protein kinase TYK2. The experiment can be described thus: Inhibition of TYK2 in human Jurkat cells by luciferase reporter gene assay. In kind it is cell-based. A general note: A reporter such as luciferase makes a cellular process visible.
The species entered for experiment [7] is Homo sapiens. The experiment can be described thus: Selectivity index, ratio of IC50 for JAK1 (unknown origin) to IC50 for TYK2 (unknown origin).
In experiment [8] the target is Tyrosine-protein kinase JAK2 (Homo sapiens, UniProt O60674). The experiment can be described thus: Inhibition of JAK2 (unknown origin).

Molecules are shown by their SMILES.

Sequence of Tyrosine-protein kinase JAK1 (P23458 whole entry): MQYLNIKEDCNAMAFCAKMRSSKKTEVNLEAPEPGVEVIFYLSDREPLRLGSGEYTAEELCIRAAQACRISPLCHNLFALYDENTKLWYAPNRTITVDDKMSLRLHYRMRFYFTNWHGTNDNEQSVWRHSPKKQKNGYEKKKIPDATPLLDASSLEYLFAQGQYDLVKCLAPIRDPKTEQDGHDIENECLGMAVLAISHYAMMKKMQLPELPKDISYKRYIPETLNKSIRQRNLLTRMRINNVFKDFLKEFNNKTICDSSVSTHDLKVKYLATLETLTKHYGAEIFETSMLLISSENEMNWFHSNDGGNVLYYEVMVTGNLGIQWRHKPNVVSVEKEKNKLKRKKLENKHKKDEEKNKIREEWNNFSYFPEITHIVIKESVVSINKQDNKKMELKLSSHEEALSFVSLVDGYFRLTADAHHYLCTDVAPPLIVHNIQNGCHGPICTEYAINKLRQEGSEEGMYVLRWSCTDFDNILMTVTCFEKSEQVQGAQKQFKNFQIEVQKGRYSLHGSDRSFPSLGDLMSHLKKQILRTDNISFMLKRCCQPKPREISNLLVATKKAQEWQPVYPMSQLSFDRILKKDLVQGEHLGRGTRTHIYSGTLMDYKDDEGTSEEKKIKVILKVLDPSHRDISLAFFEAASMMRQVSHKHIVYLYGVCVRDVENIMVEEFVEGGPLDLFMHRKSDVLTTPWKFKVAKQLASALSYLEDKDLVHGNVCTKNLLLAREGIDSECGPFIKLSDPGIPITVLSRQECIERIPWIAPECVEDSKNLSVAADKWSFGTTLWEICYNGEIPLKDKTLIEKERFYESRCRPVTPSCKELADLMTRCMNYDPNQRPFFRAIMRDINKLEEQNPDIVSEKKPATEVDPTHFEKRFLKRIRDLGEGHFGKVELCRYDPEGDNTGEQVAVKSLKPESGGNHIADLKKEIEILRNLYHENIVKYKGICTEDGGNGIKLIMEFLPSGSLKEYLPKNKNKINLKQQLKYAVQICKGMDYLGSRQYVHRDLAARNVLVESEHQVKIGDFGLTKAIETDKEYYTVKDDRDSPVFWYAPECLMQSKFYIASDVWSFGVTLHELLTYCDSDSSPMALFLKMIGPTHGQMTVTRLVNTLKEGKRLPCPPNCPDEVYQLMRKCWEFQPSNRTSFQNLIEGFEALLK
T1 sequence (P29597 whole entry): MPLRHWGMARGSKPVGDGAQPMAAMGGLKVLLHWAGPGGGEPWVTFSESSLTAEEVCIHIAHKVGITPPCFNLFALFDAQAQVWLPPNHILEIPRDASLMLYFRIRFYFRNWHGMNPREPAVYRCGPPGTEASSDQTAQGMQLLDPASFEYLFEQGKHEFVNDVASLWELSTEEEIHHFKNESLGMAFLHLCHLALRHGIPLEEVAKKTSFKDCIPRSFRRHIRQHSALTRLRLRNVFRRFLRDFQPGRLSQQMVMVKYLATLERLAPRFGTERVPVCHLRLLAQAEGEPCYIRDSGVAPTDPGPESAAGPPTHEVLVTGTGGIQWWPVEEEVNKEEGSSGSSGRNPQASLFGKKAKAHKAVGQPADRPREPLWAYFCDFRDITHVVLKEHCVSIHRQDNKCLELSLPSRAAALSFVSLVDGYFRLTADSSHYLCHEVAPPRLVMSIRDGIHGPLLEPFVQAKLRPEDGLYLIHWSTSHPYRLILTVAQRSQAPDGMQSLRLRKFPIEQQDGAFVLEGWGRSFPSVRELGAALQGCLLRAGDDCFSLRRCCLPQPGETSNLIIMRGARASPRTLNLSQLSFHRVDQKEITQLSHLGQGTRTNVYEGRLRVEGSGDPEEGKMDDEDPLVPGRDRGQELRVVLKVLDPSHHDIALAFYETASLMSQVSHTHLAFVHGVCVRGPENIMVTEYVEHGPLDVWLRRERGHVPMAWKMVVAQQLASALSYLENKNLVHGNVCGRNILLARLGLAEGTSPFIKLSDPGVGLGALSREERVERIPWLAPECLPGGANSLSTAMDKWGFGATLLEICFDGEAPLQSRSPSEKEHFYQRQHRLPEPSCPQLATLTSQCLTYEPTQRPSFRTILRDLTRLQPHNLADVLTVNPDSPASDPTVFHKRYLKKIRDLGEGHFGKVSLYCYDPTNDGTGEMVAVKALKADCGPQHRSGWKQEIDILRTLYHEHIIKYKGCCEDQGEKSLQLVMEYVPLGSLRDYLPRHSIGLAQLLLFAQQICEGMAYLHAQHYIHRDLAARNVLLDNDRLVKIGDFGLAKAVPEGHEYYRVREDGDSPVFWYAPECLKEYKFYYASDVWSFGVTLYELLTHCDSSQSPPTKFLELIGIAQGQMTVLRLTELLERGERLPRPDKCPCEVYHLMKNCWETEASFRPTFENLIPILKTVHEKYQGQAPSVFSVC
Sequence of Tyrosine-protein kinase JAK2 (O60674 whole entry): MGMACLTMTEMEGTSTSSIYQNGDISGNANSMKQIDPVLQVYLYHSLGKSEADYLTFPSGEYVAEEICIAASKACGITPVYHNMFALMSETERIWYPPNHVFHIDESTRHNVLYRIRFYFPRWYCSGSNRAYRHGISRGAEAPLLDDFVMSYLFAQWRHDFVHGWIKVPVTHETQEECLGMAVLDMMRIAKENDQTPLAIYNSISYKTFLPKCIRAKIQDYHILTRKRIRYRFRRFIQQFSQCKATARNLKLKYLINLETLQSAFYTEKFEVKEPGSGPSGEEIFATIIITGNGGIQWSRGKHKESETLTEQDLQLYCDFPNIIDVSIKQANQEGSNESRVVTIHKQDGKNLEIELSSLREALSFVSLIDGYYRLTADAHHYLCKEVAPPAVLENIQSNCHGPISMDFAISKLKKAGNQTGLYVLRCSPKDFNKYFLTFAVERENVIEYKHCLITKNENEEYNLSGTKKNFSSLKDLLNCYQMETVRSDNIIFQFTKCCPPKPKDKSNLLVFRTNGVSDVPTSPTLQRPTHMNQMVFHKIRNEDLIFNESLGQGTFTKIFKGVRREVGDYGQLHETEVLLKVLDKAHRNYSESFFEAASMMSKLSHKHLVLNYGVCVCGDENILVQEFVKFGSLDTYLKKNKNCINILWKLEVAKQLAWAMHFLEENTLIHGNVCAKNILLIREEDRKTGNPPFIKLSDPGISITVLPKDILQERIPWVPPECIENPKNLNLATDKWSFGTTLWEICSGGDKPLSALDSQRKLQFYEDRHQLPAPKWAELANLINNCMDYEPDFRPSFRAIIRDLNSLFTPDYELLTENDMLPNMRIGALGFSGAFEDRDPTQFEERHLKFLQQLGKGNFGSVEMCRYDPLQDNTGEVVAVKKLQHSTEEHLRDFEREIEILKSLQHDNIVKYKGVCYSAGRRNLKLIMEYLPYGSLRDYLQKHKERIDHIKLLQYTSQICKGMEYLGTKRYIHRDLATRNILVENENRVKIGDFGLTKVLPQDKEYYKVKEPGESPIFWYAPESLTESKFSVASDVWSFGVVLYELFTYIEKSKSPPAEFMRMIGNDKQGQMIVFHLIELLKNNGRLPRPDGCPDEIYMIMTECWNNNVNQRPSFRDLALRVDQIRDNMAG

Usually IC50 stands for the concentration needed to halve the response being measured. Consider `N#C[C@]1(C2CC2)C(=O)N2C[C@H]1COC/C=C\COCc1cccc(n1)Nc1cc2ccn1`, for which the IC50 worked out at 5.2 nM in experiment [1]; 270 nM in experiment [3]; 580 nM in experiment [5]; 260 nM in experiment [6]; 130 nM in experiment [8]. Further, the figures for the Ratio IC50 in experiment [2], in experiment [4] and in experiment [7] were 52, 25 and 110, respectively.

Regarding `N#C[C@]1(C2CC2)C(=O)N2C[C@H]1COCC(=O)NCCc1cccc(n1)Nc1cc2ccn1`, the IC50 in experiment [1] stood at 23 nM; in experiment [3] it was 130 nM; in experiment [5], 910 nM; in experiment [6], 210 nM; in experiment [8], 180 nM. Moreover, the values for the Ratio IC50 in experiment [2], in experiment [4] and in experiment [7] were 5.7, 7.8 and 40, respectively.

In the case of `N#C[C@]1(C2CC2)C(=O)N2C[C@H]1COCCCCOCc1cccc(n1)Nc1cc2ccn1`, the IC50 in experiment [1] is 4.9 nM; in experiment [3] it was 400 nM; in experiment [5] it was 710 nM; in experiment [6] it was 210 nM; in experiment [8], 130 nM. Also, the Ratio IC50 in experiment [2] was 82; in experiment [4], 27; in experiment [7], 140.

As to `N#C[C@]1(C2CC2)C(=O)N2C[C@H]1COC/C=C/COCc1cccc(n1)Nc1cc2ccn1`, the IC50 is 12 nM in experiment [1]; 180 nM in experiment [3]; 360 nM in experiment [5]; 440 nM in experiment [6]; 140 nM in experiment [8]. For the same compound, the Ratio IC50 in experiment [2] was determined as 15; in experiment [4], 12; in experiment [7], 30.

`CN(C)C(=O)c1ccc(Nc2cc(N3CC[C@@](C#N)(C4CC4)C3=O)ccn2)nc1` had a concentration for half-maximal inhibition (IC50) in experiment [1] of 1.1 nM.

As to `N#C[C@]1(C2CC2)C(=O)N2C[C@H]1COCC(=O)NCc1cccc(n1)Nc1cc2ccn1`, the IC50 is 130 nM in experiment [1]; 1900 nM in experiment [3]; 3000 nM in experiment [5]; 1300 nM in experiment [6]; 1000 nM in experiment [8]. In addition, the Ratio IC50 amounted to 15 in experiment [2], 7.7 in experiment [4] and 23 in experiment [7].

With `N#C[C@]1(C2CC2)C(=O)N2C[C@H]1COCC(=O)NCCCc1cccc(n1)Nc1cc2ccn1`, the IC50 in experiment [1] stood at 5.5 nM; in experiment [3] it was 43 nM; in experiment [5], 130 nM; in experiment [6], 180 nM; in experiment [8], 100 nM. Further, the results for the Ratio IC50 in experiment [2], in experiment [4] and in experiment [7] were 7.8, 18 and 24, respectively.
